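Protocol summary: plate cells (96-well), add compound at 5 concentrations, incubate 48 h, interpolate endpoints linearly. GI50 marks 50% less growth.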 Active and inactive are the calls of the source. Cut-off read from the data, not from the text of the source: active = GI50 up to about 1.1 µM and inactive = higher.
How the values were obtained:
Experiment in all cases: NCI-60 cell line screen, 48 h
KM12 = system: KM12
TK-10 = system: TK-10
A549 = system: A549
K562 = system: K562
DU-145 = system: DU-145
786-0 = system: 786-0
RPMI-8226 = system: RPMI-8226
NCI-H226 = system: NCI-H226
SK-MEL-5 = system: SK-MEL-5
NCI-H23 = system: NCI-H23
MCF7 = system: MCF7
OVCAR-3 = system: OVCAR-3
UO-31 = system: UO-31
HCC 2998 = system: HCC 2998
SN12C = system: SN12C
NCI/ADR-RES = system: NCI/ADR-RES
IGROV-1 = system: IGROV-1
SNB-75 = system: SNB-75
MOLT-4 = system: MOLT-4

Compound	GI50 (KM12)	GI50 (TK-10)	GI50 (A549)	GI50 (K562)	GI50 (DU-145)	GI50 (786-0)	GI50 (RPMI-8226)	GI50 (NCI-H226)	GI50 (SK-MEL-5)	GI50 (NCI-H23)	GI50 (MCF7)	GI50 (OVCAR-3)	GI50 (UO-31)	GI50 (HCC 2998)	GI50 (SN12C)	GI50 (NCI/ADR-RES)	GI50 (IGROV-1)	GI50 (SNB-75)	GI50 (MOLT-4)
O=S1(=O)CCN(Cc2ccccn2)CC1	> 100 µM (inactive)	> 100 µM (inactive)	> 100 µM (inactive)	> 100 µM (inactive)	> 100 µM (inactive)	> 100 µM (inactive)	> 100 µM (inactive)	> 100 µM (inactive)	> 100 µM (inactive)	> 100 µM (inactive)	> 100 µM (inactive)	4.49 µM (inactive)	> 100 µM (inactive)	> 100 µM (inactive)	> 100 µM (inactive)	> 100 µM (inactive)	> 100 µM (inactive)	> 100 µM (inactive)	–
O=C(/C=C/c1ccc2c(c1)OCO2)NCc1ccco1	> 100 µM (inactive)	> 100 µM (inactive)	> 100 µM (inactive)	82.6 µM (inactive)	> 100 µM (inactive)	> 100 µM (inactive)	–	> 100 µM (inactive)	> 100 µM (inactive)	> 100 µM (inactive)	39.7 µM (inactive)	82.2 µM (inactive)	67.1 µM (inactive)	> 100 µM (inactive)	> 100 µM (inactive)	> 100 µM (inactive)	56 µM (inactive)	22.3 µM (inactive)	> 100 µM (inactive)
CN(C)CCCNc1ccc2nnn3c4ccc(OC(=O)c5ccccc5)cc4c(=O)c1c23	4.92 µM (inactive)	7.8 µM (inactive)	2.43 µM (inactive)	1.81 µM (inactive)	8.26 µM (inactive)	3.08 µM (inactive)	3.29 µM (inactive)	–	–	13.4 µM (inactive)	6.07 µM (inactive)	11.5 µM (inactive)	4.14 µM (inactive)	9.08 µM (inactive)	5.06 µM (inactive)	12.5 µM (inactive)	2.11 µM (inactive)	–	0.192 µM (active)
O=C(O)c1nc2ccc(C(F)(F)F)cc2nc1NCc1ccc(F)cc1	26.4 µM (inactive)	–	19.1 µM (inactive)	19.6 µM (inactive)	> 100 µM (inactive)	14.9 µM (inactive)	21 µM (inactive)	39.5 µM (inactive)	16.9 µM (inactive)	24 µM (inactive)	22.9 µM (inactive)	8.34 µM (inactive)	2.75 µM (inactive)	22.8 µM (inactive)	17.5 µM (inactive)	35.5 µM (inactive)	25.4 µM (inactive)	35.2 µM (inactive)	9.23 µM (inactive)
Cc1ccc(/C=C2\CN(C)CC3C(c4ccc(C)cc4)=C(C#N)C(=O)NC23)cc1 (stereo unspecified)	> 50 µM (inactive)	> 50 µM (inactive)	> 50 µM (inactive)	> 50 µM (inactive)	> 50 µM (inactive)	> 50 µM (inactive)	> 50 µM (inactive)	> 50 µM (inactive)	> 50 µM (inactive)	> 50 µM (inactive)	> 50 µM (inactive)	> 50 µM (inactive)	–	> 50 µM (inactive)	> 50 µM (inactive)	> 50 µM (inactive)	> 50 µM (inactive)	–	> 50 µM (inactive)
Cc1cc(N2CCCCC2)nc2ccc(Cc3ccc4nc(N5CCCCC5)cc(C)c4c3)cc12	> 100 µM (inactive)	> 100 µM (inactive)	> 100 µM (inactive)	32.1 µM (inactive)	> 100 µM (inactive)	> 100 µM (inactive)	35.8 µM (inactive)	> 100 µM (inactive)	48.4 µM (inactive)	> 100 µM (inactive)	> 100 µM (inactive)	> 100 µM (inactive)	> 100 µM (inactive)	22.8 µM (inactive)	> 100 µM (inactive)	> 100 µM (inactive)	> 100 µM (inactive)	> 100 µM (inactive)	> 100 µM (inactive)

— ChEMBL document CHEMBL1201862, “PubChem BioAssay data set” (2004)
